Reference: US9605002B2, “5,5-heteroaromatic anti-infective compounds” (priority 2012, dated 2017)
Values after ≈ are worked out from the molar mass of the structure shown.

Tests used:
[1] = tested on: M. tuberculosis (Mtb) H37Rv; assay: Microplate Alamar Blue Assay (MABA), GAS media, replicating Mtb; type: cell-based, Mycobacterium tuberculosis; conditions: Mycobacterium tuberculosis; GAS (glycerol-alanine-salt) media, replicating H37Rv; read-out: GAS media: replicating H37Rv Mtb: MIC 90
[2] = tested on: VERO kidney epithelial cells; assay: VERO toxicity assessment; conditions: Chlorocebus sabaeus, Vero, read-out: VERO: IC50
[3] = tested on: M. tuberculosis (Mtb) H37Rv; assay: Microplate Alamar Blue Assay (MABA), 7H12 media, replicating Mtb; type: cell-based; conditions: Mycobacterium tuberculosis, 7H12 media (no glycerol), read-out: 7H12 media: Replicating H37Rv Mtb: MIC 90

SMILES | MIC90 [1] [µM] | IC50 [2] [µM] | MIC90 [3] [µM]
Cc1nc2sc(C(F)(F)F)cn2c1C(=O)NCc1ccc(N(C)C)cc1 [ND-020024] | < 2 | < 32 | 2 to 10 (≈ 0.765 to 3.82 µg/mL)
Cc1cn2c(C(=O)NCc3ccc(F)cc3)c(C)nc2s1 [ND-020003] | < 2 | < 32 | 2 to 10 (≈ 0.607 to 3.03 µg/mL)
Cc1nc2sc(C(F)(F)F)cn2c1C(=O)NCc1ccc(N2CCOCC2)c(F)c1 [ND-020038] | 2 to 10 | < 32 | 2 to 10 (≈ 0.885 to 4.42 µg/mL)
Cc1cn2c(C(=O)NCc3ccc4c(ccn4C)c3)c(C)nc2s1 [ND-020079] | < 2 | < 32 | < 2
CCc1nc2sc(C)cn2c1C(=O)NCc1ccc(N(C)C)cc1 [ND-020026] | < 2 | < 32 | < 2
CCc1nc2sc(C)cn2c1C(=O)OC [ND-009743] | < 32 | < 32 | < 32
Cc1cn2c(C(=O)NCc3cc(Cl)cc(Cl)c3)c(C)nc2s1 [ND-020005] | < 2 | < 32 | < 2
Cc1nc2sc(Cl)cn2c1C(=O)NCc1ccc2c(c1)OCC2 [ND-020062] | < 2 | < 32 | < 2
Cc1nc2sc(C)c(C)n2c1C(=O)NCc1ccc(C(F)(F)F)cc1 [ND-020013] | 2 to 10 | < 32 | 10 to 20 (≈ 3.67 to 7.35 µg/mL)
Cc1nn2c(C(=O)OCc3ccccc3)c(C)nc2s1 [ND-010475] | < 2 | < 32 | 10 to 20 (≈ 2.87 to 5.75 µg/mL)
Cc1cn2c(C(=O)Nc3ccc(Oc4ccc(C(F)(F)F)cc4)cc3)c(C)nc2s1 [ND-020040] | < 2 | < 32 | < 2
Cc1cn2c(C(=O)NCc3cccc(OC(C)C)c3)c(C)nc2s1 [ND-020030] | < 2 | < 32 | < 2
Cc1cn2c(C(=O)NCc3ccc4nc(-c5ccc(F)cc5)oc4c3)c(C)nc2s1 [ND-020066] | < 2 | 20 to 32 | 2 to 10 (≈ 0.841 to 4.2 µg/mL)
Cc1cn2c(C(=O)NCc3cccc(C(F)(F)F)c3)c(C)nc2s1 [ND-020008] | < 2 | < 32 | < 2
CCc1nc2sc(C)cn2c1C(=O)O [ND-009745] | < 32 | < 32 | < 32
CCc1nc2sc(C)cn2c1C(=O)NCc1ccc2ccn(C)c2c1 [ND-020078] | < 2 | < 32 | < 2
Cc1cn2c(C(=O)NCc3ccc(-n4cccn4)cc3)c(C)nc2s1 [ND-020064] | < 2 | 20 to 32 | < 2
Cc1cn2c(C(=O)NCc3cccc(N4CC(C)CC(C)C4)c3)c(C)nc2s1 (stereo not drawn) [ND-020068] | < 2 | < 32 | < 2
Cc1cn2c(C(=O)NCc3cccc(N4CCOCC4)n3)c(C)nc2s1 [ND-020036] | < 2 | < 32 | 2 to 10 (≈ 0.743 to 3.71 µg/mL)
Cc1cn2c(C(=O)NCc3ccc(OC(F)(F)F)cc3)c(C)nc2s1 [ND-020006] | < 2 | < 32 | < 2
Cc1cn2c(C(=O)NCc3ccc(Oc4ccc(C(F)(F)F)cc4)cc3)c(C)nc2s1 [ND-020055] | < 2 | 20 to 32 | < 2

SMILES | MIC90 [1] [µM] | IC50 [2] [µM] | MIC90 [3] [µM]
Cc1cn2c(C(=O)NCc3cccc(N4CCN(c5ccc(F)cc5)CC4)c3)c(C)nc2s1 [ND-020047] | < 2 | 20 to 32 | 2 to 10 (≈ 0.927 to 4.64 µg/mL)
COc1cc(CNC(=O)c2c(C)nc3sc(C)cn23)ccn1 [ND-020017] | < 2 | < 32 | 2 to 10 (≈ 0.633 to 3.16 µg/mL)
Cc1cn2c(C(=O)NCc3ccc(N4CC(C)CC(C)C4)cc3)c(C)nc2s1 (stereo not drawn) [ND-020069] | < 2 | 20 to 32 | < 2
CNc1ccc(CNC(=O)c2c(C)nc3sc(C)cn23)cc1 [ND-020021] | < 2 | < 32 | < 2
Cc1cn2c(C(=O)NCc3ccccc3)c(C)nc2s1 [ND-009749] | < 2 | < 32 | < 2
CC1=Nn2c(nc(C)c2C(=O)NCc2ccc(Oc3ccc(F)cc3)cc2)C1 [ND-020050] | < 2 | 20 to 32 | 2 to 10 (≈ 0.757 to 3.78 µg/mL)
Cc1cn2c(C(=O)NCc3ccc(Oc4ccc(Cl)cc4)cc3)c(C)nc2s1 [ND-020060] | < 2 | 10 to 20 | < 2
Cc1cn2c(C(=O)NCc3ncc(C(F)(F)F)cc3Cl)c(C)nc2s1 [ND-020016] | < 2 | < 32 | < 2
Cc1cn2c(C(=O)NCc3ccc4c(ccn4C)c3)c(C(F)(F)F)nc2s1 [ND-020080] | < 2 | < 32 | < 2
Cc1cn2c(C(=O)NCc3cccc(N4CCOCC4)c3)c(C)nc2s1 [ND-020032] | < 2 | < 32 | 2 to 10 (≈ 0.741 to 3.7 µg/mL)
Cc1cn2c(C(=O)NCc3cccc(Oc4ccc(C(F)(F)F)cc4)c3)c(C)nc2s1 [ND-020057] | < 2 | < 32 | < 2
Cc1cn2c(C(=O)NCc3cccc(Oc4ccc(F)cc4)c3)c(C)nc2s1 [ND-020059] | < 2 | 20 to 32 | < 2
CCc1nc2sc(C)cn2c1C(=O)NCc1ccc(-c2ccc(C(F)(F)F)cc2)cc1 [ND-020043] | < 2 | < 32 | 2 to 10 (≈ 0.887 to 4.43 µg/mL)
Cc1cn2c(C(=O)NCc3cc(F)ccc3F)c(C)nc2s1 [ND-020002] | < 2 | < 32 | < 2
Cc1cn2c(C(=O)NCc3cccc(F)c3)c(C)nc2s1 [ND-009762] | < 2 | < 32 | < 2
Cc1cn2c(C(=O)NCc3ccc(N4CCOCC4)c(F)c3)c(C)nc2s1 [ND-020034] | < 2 | < 32 | 2 to 10 (≈ 0.777 to 3.88 µg/mL)
Cc1nn2c(C(=O)NCc3ccc(Oc4ccc(F)cc4)cc3)c(C)nc2s1 [ND-020052] | < 2 | 20 to 32 | 2 to 10 (≈ 0.793 to 3.96 µg/mL)
Cc1cn2c(C(=O)NCc3cccc(Oc4ccc(Cl)cc4)c3)c(C)nc2s1 [ND-020058] | < 2 | 20 to 32 | < 2
Cc1nc2sc(C(F)(F)F)cn2c1C(=O)NCc1ccc2c(c1)OCC2 [ND-020063] | < 2 | < 32 | 2 to 10 (≈ 0.763 to 3.81 µg/mL)
COc1cccc(CNC(=O)c2c(C)nc3sc(C)cn23)c1 [ND-009763] | < 2 | < 32 | < 2
Cc1cn2c(C(=O)NCc3cc(F)cc(F)c3)c(C)nc2s1 [ND-020004] | < 2 | < 32 | < 2

SMILES | MIC90 [1] [µM] | IC50 [2] [µM] | MIC90 [3] [µM]
CCOc1ccc(CNC(=O)c2c(C)nc3sc(C)cn23)cc1 [ND-020028] | < 2 | < 32 | < 2
Cc1cn2c(C(=O)NCc3cccc(N4CC(C)OC(C)C4)c3)c(C)nc2s1 (stereo not drawn) [ND-020075] | < 2 | < 32 | < 2
CCc1nc2sc(C)cn2c1C(=O)NCc1ccc(C(F)(F)F)cc1 [ND-020010] | < 2 | < 32 | < 2
Cc1cn2c(C(=O)NCc3ccc4ccn(C)c4c3)c(C)nc2s1 [ND-020077] | < 2 | < 32 | < 2
Cc1cn2c(C(=O)Nc3ccc(-c4ccc(C(F)(F)F)cc4)cc3)c(C)nc2s1 [ND-020042] | < 2 | < 32 | 2 to 10 (≈ 0.831 to 4.15 µg/mL)
Cc1nc2sc(F)cn2c1C(=O)NCc1cccc(Cl)c1 [ND-020056] | < 2 | < 32 | 2 to 10 (≈ 0.648 to 3.24 µg/mL)
Cc1cn2c(C(=O)NCc3cccc(OC(F)(F)F)c3)c(C)nc2s1 [ND-020007] | < 2 | < 32 | < 2
CCc1nc2sc(C)cn2c1C(=O)NCc1ccc(N2CCN(c3ccc(F)cc3)CC2)cc1 [ND-020048] | < 2 | 10 to 20 | < 2
Cc1nc2sc(Cl)cn2c1C(=O)NCc1ccc(C(F)(F)F)cc1 [ND-020012] | < 2 | < 32 | < 2
Cc1nc2sc(Cl)cn2c1C(=O)NCc1ccc(N(C)C)cc1 [ND-020022] | < 2 | < 32 | < 2
CCc1nc2sc(Cl)cn2c1C(=O)NCc1ccc(Oc2ccc(Cl)cc2)cc1 [ND-020053] | < 2 | 20 to 32 | < 2
Cc1cn2c(C(=O)NCc3cccc(N4CCC(c5ccc(F)cc5)CC4)c3)c(C)nc2s1 [ND-020045] | < 2 | 20 to 32 | 2 to 10 (≈ 0.925 to 4.63 µg/mL)
Cc1cn2c(C(=O)NCCc3ccc(Cl)cc3)c(C)nc2s1 [ND-020081] | < 2 | < 32 | < 2
Cc1cn2c(C(=O)NCc3ccc(C(F)(F)F)cc3)c(C)nc2s1 [ND-020009] | < 2 | < 32 | < 2
CCc1nc2sc(Cl)cn2c1C(=O)NCc1ccc(C(F)(F)F)cc1 [ND-020011] | < 2 | < 32 | 2 to 10 (≈ 0.776 to 3.88 µg/mL)
COc1ccc(CNC(=O)c2c(C)nc3sc(C)cn23)cc1 [ND-020027] | < 2 | < 32 | < 2
Cc1cn2c(C(=O)NCc3ccc(-n4cnnc4)cc3)c(C)nc2s1 [ND-020065] | 2 to 10 | 20 to 32 | 2 to 10 (≈ 0.705 to 3.52 µg/mL)
Cc1nc2sc(F)cn2c1C(=O)NCc1ccc2c(c1)OCC2 [ND-020061] | < 2 | < 32 | < 2
Cc1cn2c(C(=O)NCc3ccc(N4CCOCC4)c(Cl)c3)c(C)nc2s1 [ND-020035] | < 2 | 20 to 32 | < 2
Cc1cn2c(C(=O)NCc3ccc(N(C)C)cc3)c(C)nc2s1 [ND-020020] | < 2 | < 32 | < 2
